This passage reports GI50 and TGI results from PubChem BioAssay (NCI).

“And” between values parts separate entries of the source, which are not always exact repeats. Equal entries are not always repeated.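 Compound exposure: 48 hours, 5 concentrations, 96-well plates. GI50 is the concentration that inhibits growth by half. TGI: total growth inhibition.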 A value given as a limit tells only on which side of the number the result lay.

Assay in all cases: inhibition of tumour cell growth, NCI panel, 48 h
Test [1] deals with BT-549 breast.
Test [2] concerns SNB-78 CNS.
Test [3] deals with M19-MEL melanoma.
Test [4] deals with LXFL 529 NSCLC.
Test [5] deals with DLD-1 colon.
Test [6] concerns HOP-18 NSCLC.
For test [7], the system named is KM20L2 colon.
The test system of test [8] is MDA-N.

Take `C=C(C)C1CCC2(C(=O)O)CCC3(C)C(CCC4C5(C)CCC(OC(=O)NCc6ccccc6)C(C)(C)C5CCC43C)C12` (stereo not drawn): in test [1], the GI50 is 4.05 µM and the TGI is 33.3 µM.

For the compound `N#Cc1cccc(NC(=O)c2cc(-c3ccc(F)cc3F)ccc2O)c1`, in test [1], the GI50 was 2.31 µM and the TGI came to 7.06 µM.

As for `Cc1nc2ccccc2c(=O)n1-c1ccccc1F`, the TGI in test [2], in test [3], in test [4], in test [5], in test [6] and in test [7] was > 100 µM in each case.

As to `O=C1OC(c2ccco2)=N/C1=C\c1cccc([N+](=O)[O-])c1`, the TGI in test [1] and in test [8] was > 100 µM throughout.

As for `N.N.O=C([O-])P(=O)([O-])[O-].[Na+].[Pt+4]`, the GI50 in test [2], in test [4], in test [5], in test [6] and in test [7] was > 100 µM throughout. Moreover, the TGI in test [2], in test [4], in test [5], in test [6] and in test [7] was > 100 µM in each case.

`C/C(=N\Nc1ccc(Cl)cn1)c1ccccn1`: in test [1], the GI50 is 0.362 µM and the TGI is > 76 µM.

As to `Cc1ccc(C(=O)Nc2ccc(CN3CCN(C)CC3)c(C(F)(F)F)c2)cc1C#Cc1cnc(N)c2ccccc12`, in test [1], the GI50 was 1.93 µM and the TGI was determined as 8.71 µM.

As for `CO[C@H]1C=C[C@@]23c4cc5c(cc4CO[C@]2(O)CN(C)[C@H]3C1)OCO5`, the TGI in test [1] and in test [8] was > 100 µM each time.

For the compound `COc1ccc(CNc2nc3cc(C(F)(F)F)ccc3nc2C)cc1OC`, the TGI in test [2] is 55.8 µM; in test [3] it was > 100 µM; in test [4], > 100 µM; in test [5], > 100 µM; in test [7], > 100 µM.

For the compound `CC(C)c1cc2c(O)c(c1)Cc1cc(C(C)C)cc(c1O)Cc1cc(C(C)C)cc(c1O)Cc1cc(C(C)C)cc(c1O)C2`, the TGI in test [2], in test [3], in test [5], in test [6] and in test [7] was > 100 µM each time.

In the case of `COC(=O)C(NC(=O)c1ccccc1)c1ccco1` (stereo not drawn), the TGI in test [1] and in test [8] was > 100 µM in each case.

Turning to `COC(=O)C(=O)C(C(=O)C=C(C)C)C(=O)C(=O)Nc1ccc(C)cc1C` (stereo not drawn), the TGI in test [2], in test [3], in test [4], in test [5], in test [6] and in test [7] was > 100 µM throughout.

Consider `Cc1ccc(NC(=O)c2sc3nc(C)c(C(O)c4ccccc4)cc3c2N)cc1` (stereo not drawn), for which, in test [1], the GI50 is 1.15 µM and the TGI was 33.7 µM.

For `COc1cccc(N2C(=O)[C@H]3CC(C)c4c([nH]c5ccccc45)[C@H]3C2=O)c1` (stereo partly drawn), the TGI in test [2], in test [3], in test [4], in test [5] and in test [7] was > 100 µM in each case.

Regarding `Cc1nc(-c2ccccc2)c(-c2ccccc2)s1`, the TGI in test [1] is 67.1 µM; in test [8], 35.1 µM.

For `N#CCC(=O)NC1C2CC3CC(C2)CC1C3` (stereo not drawn), the TGI in test [2] is 43 µM; in test [3], > 100 µM; in test [4], > 100 µM; in test [5], 48.9 µM; in test [7], 33.6 µM.

In the case of `Cn1cnc([N+](=O)[O-])c1[Se]c1nc(N)nc2c1ncn2C1OC(CO)C(O)C1O` (stereo not drawn), the TGI in test [1] and in test [8] was > 100 µM throughout.

In the case of `COC(=O)C(=Cc1cc(OC)c(OC)c(OC)c1-c1cc2c(cc1C(C)=O)OCO2)C(=O)OC`, the TGI in test [3] turned out to be 75 µM; in test [4], 65.9 µM; in test [5] it was 53.7 µM; in test [6], 87.4 µM; in test [7], 62.8 µM.

As to `COc1ccc(-c2cc(=O)c3ccccc3[nH]2)c(OC)c1`, the TGI in test [2], in test [3], in test [4], in test [5] and in test [7] was > 100 µM each time.

For the compound `OC/C=C(\I)CCCOCOCc1ccccc1`, the TGI in test [2], in test [3], in test [4], in test [5] and in test [7] was > 100 µM in each case.

Turning to `CCOC(=O)C(Cc1cn(S(=O)(=O)c2ccccc2)c2ccccc12)(NC(C)=O)C(=O)OCC`, the TGI in test [3] is > 100 µM; in test [4], 95.5 µM; in test [5], > 100 µM; in test [7], > 100 µM.

Regarding `COc1cc2c(c(OC)c1OC)-c1c(cc3c(c1OC)OCO3)C1OC2C(C)C1C` (stereo not drawn) (tested in a mixture with another compound), the TGI in test [1] and in test [8] was > 100 µM each time.

As for `CN1C(=O)c2ccccc2NC(=O)C12O[C@@H]2c1cccc(O)c1` (stereo partly drawn), the TGI in test [8] was > 100 µM.

With `COc1ccc(OC)c(C(=O)c2oc3ccc(Br)cc3c2N)c1`, in test [1], the GI50 is 0.584 µM and the TGI turned out to be 21.1 µM.

For `COc1cc(NS(=O)(=O)c2ccc(-c3cnc(C4CC4)o3)cc2)ccc1F`, in test [1], the GI50 was 2.02 µM and the TGI worked out at 20.3 µM.

For the compound `COc1cc2c3c(n(C)c(=O)c2cc1OC)-c1cc2c(cc1/C3=C\CNCCCN)OCO2`, in test [1], the GI50 was 1.91 µM and the TGI was found to be 5.22 µM.

For the compound `CCC(=O)c1c(C(F)(F)F)n([O-])c2ccc(C)cc2[n+]1=O`, in test [1], the GI50 was 1.35 µM and the TGI was determined as 5.43 µM.

Regarding `C/C(=C1/CCC/C(=C(/C)c2ccccc2)C1=O)c1ccccc1`, the TGI was > 100 µM in test [2]; 58.3 µM in test [3]; > 100 µM in test [4]; > 100 µM in test [5]; > 100 µM in test [6]; > 100 µM in test [7].

For `Cc1ccc2[nH]c(C(=O)NN3C(=O)C(C)SC34CCCC(C)C4)c(-c3ccccc3)c2c1` (stereo not drawn), in test [1], the GI50 was 76.7 µM and the TGI was > 100 µM.

In the case of `COc1cc2c3c(n(CCNCCCNCCn4c5c(c6cc(OC)c(OC)cc6c4=O)C(=O)c4ccccc4-5)c(=O)c2cc1OC)-c1ccccc1C3=O`, in test [1], the GI50 was 2.87 µM and the TGI was > 100 µM.

On to `CC(C)(C)c1cc(NC(=O)Cc2ccc(-c3cnc4cc(-c5cnn(CCN6CCOCC6)c5)ccc4n3)cc2)no1`, for which the TGI in test [1] was 39.5 µM and > 100 µM and > 3 µM.

Consider `c1cc[c]([Pb]([c]2ccccc2)[c]2ccccc2)cc1`, for which the GI50 was 13.2 µM in test [2]; 4.03 µM in test [4]; 11.9 µM in test [5]; 16.8 µM in test [6]; 23.3 µM in test [7]. Besides, the TGI in test [2] was > 100 µM; in test [4], 17.2 µM; in test [5], 29.6 µM; in test [6], 50.8 µM; in test [7], 91.6 µM.

Turning to `CCOC(=O)c1c(C)nc2c(c1N)/C(=C/c1ccc(OC)cc1)C(=O)N2Cc1ccc(F)cc1`, in test [1], the GI50 is 0.169 µM and the TGI turned out to be 0.365 µM.

Regarding `CCCCN1CSC(=S)N(Cc2ccccc2)C1`, the TGI in test [1] and in test [8] was > 100 µM throughout.

Regarding `COc1ccc(C2SCC(=O)N2NC(=O)Nc2c(C)nc3ccccn23)cc1` (stereo not drawn), in test [1], the GI50 is 24.2 µM and the TGI turned out to be 65 µM.

On to `COC(=O)[C@H](Cc1c[nH]c2ccccc12)NC(=O)[C@@H](OC)[C@@H]1Cc2cc3cc(OC4CC(OC5CC(O)C(O)C(C)O5)C(O)C(C)O4)c(C)c(O)c3c(O)c2C(=O)[C@H]1OC1CC(OC2CC(OC3CC(C)(O)C(O)C(C)O3)C(O)C(C)O2)C(O)C(C)O1` (stereo partly drawn), for which, in test [1], the GI50 was 0.00527 µM and the TGI came out at 0.031 µM.

As for `O=C1/C(=C/c2ccc(O)cc2)CSc2ccc(Cl)cc21`, in test [1], the GI50 was 15.7 µM and the TGI is 38.3 µM.

Consider `CSc1nc2cc(S(=O)(=O)N3CCCCC3)ccc2s1`, for which the TGI in test [1] and in test [8] was > 100 µM in each case.

Regarding `Clc1ccc(-c2c(C3=NCCCN3)nnn2-c2ccc(Cl)cc2)cc1`, the TGI in test [2] is > 100 µM; in test [1] it was > 100 µM; in test [4], > 83.3 µM; in test [5], > 100 µM; in test [8] it was 39.3 µM; in test [6], > 100 µM. In addition, the TGI in test [7] is > 100 µM.

Regarding `CCc1ccc(Nc2ccc([N+](=O)[O-])cc2[N+](=O)[O-])cc1`, the TGI in test [2], in test [3], in test [4], in test [5] and in test [7] was > 100 µM in each case.

For the compound `CC1(C)N=C(N)N=C(N)N1c1ccc(OCc2ccc(S(=O)(=O)F)c(Cl)c2)c(Cl)c1`, in test [1], the GI50 was 18.9 µM and the TGI is > 100 µM.

Consider `O=C(O)[C@@H]1CCCCN1Cc1cc2cc3c(cc2c2cc(OCc4ccccc4)ccc12)OCO3`, for which, in test [1], the GI50 was 2.97 µM and the TGI was found to be 8.88 µM.

As to `O=C1NC2OCC(O)C(O)C2O1` (stereo not drawn), the TGI in test [2], in test [3], in test [4], in test [5], in test [6] and in test [7] was > 100 µM each time.

`COc1cc2c3c(n(CCCCOC(=O)C(Cl)(Cl)Cl)c(=O)c2cc1OC)-c1cc2c(cc1C3=O)OCO2`: in test [1], the GI50 was 57.1 µM and the TGI was > 100 µM.

For `COC(=O)c1c(C)[nH]c(/C=C2\N=C(c3ccc[nH]3)C=C2OC)c1C`, in test [1], the GI50 was 0.199 µM and the TGI came to 3.04 µM.

Regarding `C/C=C(\C)CC/C=C/CO[Si](C)(C)C(C)(C)C`, in test [8], the TGI is > 100 µM.

Turning to `Fc1ccc(-c2nn3ncccc3c2-c2ccnc(Nc3ccc4c(c3)OCCO4)n2)cc1`, in test [1], the GI50 is 7.87 µM and the TGI came to 24.9 µM.

Turning to `Cn1c2ccccc2c2c3[nH]c(=O)[nH]c(=O)c3c3c4ccccc4n(C)c3c21`, in test [1], the GI50 is 2.83 µM and the TGI amounted to 18.7 µM.

In the case of `COc1cccc(/C=C2\C(=O)N(C(=O)c3ccc(NC(C)=O)cc3)N=C2C)c1`, the TGI in test [2], in test [3] and in test [5] was > 100 µM in each case.

In the case of `CON(C)C(=O)N1N=C(c2cc(F)ccc2F)SC1(CCCN)c1ccccc1` (stereo not drawn), in test [1], the GI50 is 0.302 µM and the TGI was found to be 17.5 µM.

For `COc1cc2c(c(OC)c1OC)C(=O)[C@@H]1c3ccc([N+](=O)[O-])cc3C(=O)N(CCCBr)[C@H]21`, in test [1], the GI50 is 14.6 µM and the TGI is 55.9 µM.

With `COC(=O)C12C3C4C1C1C2C3C41NC(=O)c1csc([C@@H](C[C@H](C(C)C)N(C)C(=O)[C@@H](NC(=O)[C@H]2CCCCN2C)C2CC2)OC(C)=O)n1` (stereo partly drawn), in test [1], the GI50 is < 0.00333 µM and the TGI amounted to 4.1 µM.

Regarding `COC(=O)c1cc(C)c(C)c2c1NC(=O)CNC2=O`, the TGI in test [2], in test [3], in test [4], in test [5] and in test [7] was > 100 µM each time.

Take `CC[C@H](C)[C@H]1O[C@]2(C=C[C@@H]1C)C[C@@H]1C[C@@H](C/C=C(\C)[C@@H](O[C@H]3C[C@H](OC)[C@@H](O[C@H]4C[C@H](OC)[C@@H](NC)[C@H](C)O4)[C@H](C)O3)[C@@H](C)/C=C/C=C3\CO[C@@H]4[C@H](O)C(C)=C[C@@H](C(=O)O1)[C@]34O)O2`: in test [1], the GI50 was 4.13 µM and the TGI stood at 15.1 µM.

`CC(C)(C)c1ccc(O)c(CN(Cc2cc(C(C)(C)C)ccc2O)c2ccccc2)c1`: the TGI came to 36.4 µM in test [1] and 30.4 µM in test [8].

Take `CNc1nc(N)c(N=O)c(Nc2ccc(Br)cc2)n1`: the TGI in test [1] and in test [8] was > 100 µM in each case.

Turning to `O=C(/C=C\n1cnc(-c2cc(C(F)(F)F)cc(C(F)(F)F)c2)n1)NNc1cnccn1`, in test [1], the GI50 was 0.0385 µM and the TGI is 2.82 µM.
